This note sets out measurements from patent US20180325891A1, “OCTAHYDRO AZADECALIN FORMULATIONS” (Corcept Therapeutics, Inc., priority 2017, published 2018).

A value given as a limit tells only on which side of the number the result lay.

This data set is described as follows: Solubility assessment of CORT125281 in various excipients. The class given is physicochemical. The procedure:
The solubility of the API was assessed in Labrasol, Kolliphor RH40, Kollisolv P124 and Kolliphor HS15 in order to assess scope for formulation alternatives. […] It is probable that these would be able to be solubilized given more time/energy input.

Regarding `Cn1ncc(S(=O)(=O)N2CC[C@H]3Cc4c(cnn4-c4ccc(F)cc4)C[C@]3(C(=O)c3cc(C(F)(F)F)ccn3)C2)n1` [CORT125281, ((4aR,8aS)-1-(4-fluorophenyl)-6-((2-methyl-2H-1,2,3-triazol-4-yl)sulfonyl)-4,4a,5,6,7,8,8a,9-octahydro-1H-pyrazolo[3,4-g]isoquinolin-4a-yl)(4-(trifluoromethyl)pyridin-2-yl)methanone], the “solubility of the API in excipient, visual and microscopic analysis” value (Kolliphor HS15 mix) is on record as “visibly clear, but upon microscopic analysis, they were found to contain a small number of API crystals”; the “solubility of the API in excipient, visual and microscopic analysis” value (Labrasol mix) was “visibly clear, but upon microscopic analysis, they were found to contain a small number of API crystals”. Moreover, the “solubility of the API in excipient” value is, setting by setting: (in Kolliphor RH40) less than 40 mg/g; (in Kollisolv P124) less than 40 mg/g.
